Like-named read-outs stand apart in the source and are kept apart here.
Legend:
[1] = molecular target: T1, recombinant human DPP9 (rhDPP9) (Homo sapiens, UniProt Q86TI2); experiment: DPP9 enzymatic activity assay, 40 ng rhDPP9, HEPES buffer; assay type: biochemical; details: Table 3A
T1 construct: purchased R&S system / R&D systems (both sic) 5419-SE

[2] = molecular target: T2, recombinant human DPPIV (rhDPPIV) (Homo sapiens, UniProt P27487); experiment: DPPIV enzymatic activity assay, H-Gly-Pro-pNA; assay type: biochemical
T2 construct: purchased R&S system (so in the source)
T2 sequence (P27487 whole entry): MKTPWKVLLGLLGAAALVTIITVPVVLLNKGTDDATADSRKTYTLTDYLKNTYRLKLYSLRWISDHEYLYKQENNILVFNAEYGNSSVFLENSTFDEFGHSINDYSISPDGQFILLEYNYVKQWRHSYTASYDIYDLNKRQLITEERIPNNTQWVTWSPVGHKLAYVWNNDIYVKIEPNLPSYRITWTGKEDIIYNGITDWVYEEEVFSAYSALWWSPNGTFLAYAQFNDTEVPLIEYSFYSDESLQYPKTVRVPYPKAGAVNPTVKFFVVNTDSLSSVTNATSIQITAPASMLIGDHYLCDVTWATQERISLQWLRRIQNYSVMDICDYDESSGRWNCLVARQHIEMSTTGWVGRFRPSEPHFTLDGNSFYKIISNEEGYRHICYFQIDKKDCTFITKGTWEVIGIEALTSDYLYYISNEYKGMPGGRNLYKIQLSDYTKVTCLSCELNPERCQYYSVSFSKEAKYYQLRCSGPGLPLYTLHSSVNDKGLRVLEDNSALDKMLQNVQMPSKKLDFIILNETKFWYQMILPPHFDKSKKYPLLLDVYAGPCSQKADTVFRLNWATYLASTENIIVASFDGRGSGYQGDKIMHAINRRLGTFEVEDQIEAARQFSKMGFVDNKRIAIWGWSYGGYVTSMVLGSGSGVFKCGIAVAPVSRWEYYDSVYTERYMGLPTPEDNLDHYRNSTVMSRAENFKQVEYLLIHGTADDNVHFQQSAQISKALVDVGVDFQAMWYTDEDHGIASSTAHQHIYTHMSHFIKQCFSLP

[3] = molecular target: T1, recombinant human DPP9 (rhDPP9); experiment: DPP9 inhibition assay, 10 ng rhDPP9, Tris-HCl/BSA buffer; assay type: biochemical; details: Table 3B
[4] = molecular target: T3, recombinant human FAPα (rhFAPα) (Homo sapiens, UniProt Q12884); experiment: FAPα enzymatic exopeptidase (dipeptidase) activity assay, Z-Gly-Pro-AMC; assay type: biochemical; details: for inhibition at 1 µM / rhFAPα (% exo inh @ 1 μM): exopeptidase inhibition at 1 μM test compound
T3 construct: purchased R&S system (so in the source)
T3 sequence (Q12884 1-760): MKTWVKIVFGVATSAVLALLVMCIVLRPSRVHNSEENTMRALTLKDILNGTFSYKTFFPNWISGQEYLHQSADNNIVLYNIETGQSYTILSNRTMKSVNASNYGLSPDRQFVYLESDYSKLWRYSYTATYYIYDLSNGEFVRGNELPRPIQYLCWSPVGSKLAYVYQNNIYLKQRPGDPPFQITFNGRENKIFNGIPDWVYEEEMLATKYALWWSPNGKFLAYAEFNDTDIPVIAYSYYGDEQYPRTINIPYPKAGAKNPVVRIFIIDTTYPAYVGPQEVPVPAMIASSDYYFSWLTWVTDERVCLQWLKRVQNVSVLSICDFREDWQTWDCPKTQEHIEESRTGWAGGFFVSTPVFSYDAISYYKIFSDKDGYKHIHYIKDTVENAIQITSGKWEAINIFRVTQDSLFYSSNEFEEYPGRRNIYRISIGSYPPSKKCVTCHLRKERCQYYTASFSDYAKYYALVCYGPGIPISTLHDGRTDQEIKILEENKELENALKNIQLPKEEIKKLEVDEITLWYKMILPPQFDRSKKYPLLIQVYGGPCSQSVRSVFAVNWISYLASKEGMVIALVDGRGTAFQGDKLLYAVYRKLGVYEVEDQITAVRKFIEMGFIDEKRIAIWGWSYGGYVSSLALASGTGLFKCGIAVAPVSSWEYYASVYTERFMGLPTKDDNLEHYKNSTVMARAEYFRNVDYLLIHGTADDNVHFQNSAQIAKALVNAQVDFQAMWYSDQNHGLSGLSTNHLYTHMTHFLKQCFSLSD

[5] = molecular target: T4, recombinant human PREP (rhPREP) (Homo sapiens, UniProt P48147); experiment: PREP enzymatic activity assay, Z-Gly-Pro-AMC; assay type: biochemical
T4 sequence (P48147 1-710): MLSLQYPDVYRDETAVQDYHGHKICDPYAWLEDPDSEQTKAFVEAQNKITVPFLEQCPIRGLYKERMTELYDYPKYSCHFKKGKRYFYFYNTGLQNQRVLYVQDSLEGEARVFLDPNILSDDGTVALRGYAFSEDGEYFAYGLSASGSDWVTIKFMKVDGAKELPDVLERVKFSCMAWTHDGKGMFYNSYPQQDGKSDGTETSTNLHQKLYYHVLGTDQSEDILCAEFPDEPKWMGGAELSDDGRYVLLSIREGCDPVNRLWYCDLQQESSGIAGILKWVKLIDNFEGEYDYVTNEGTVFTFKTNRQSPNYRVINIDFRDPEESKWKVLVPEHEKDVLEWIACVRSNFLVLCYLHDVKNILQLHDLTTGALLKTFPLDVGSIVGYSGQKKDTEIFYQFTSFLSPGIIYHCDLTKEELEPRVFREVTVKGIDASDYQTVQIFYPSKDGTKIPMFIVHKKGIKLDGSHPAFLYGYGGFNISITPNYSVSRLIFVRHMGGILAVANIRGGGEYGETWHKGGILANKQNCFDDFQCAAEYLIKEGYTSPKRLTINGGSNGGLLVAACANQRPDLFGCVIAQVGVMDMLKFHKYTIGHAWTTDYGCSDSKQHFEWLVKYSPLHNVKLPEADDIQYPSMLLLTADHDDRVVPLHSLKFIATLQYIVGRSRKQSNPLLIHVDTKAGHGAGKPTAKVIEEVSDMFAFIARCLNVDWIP

[6] = test system: human AML cell line MV4-11; experiment: Cytotoxicity assay in human leukemia cell lines (Cell-Titer Glo); details: MV4-11, 48 h, read-out: MV4-11 viability IC50, μM
[7] = molecular target: T5, DPPIV (Mus musculus, UniProt P28843); experiment: DPPIV enzymatic activity in mouse plasma (H-Gly-Pro-AMC); assay type: biochemical, C57BL/6 mouse; details: H-Gly-Pro-AMC substrate
T5 construct: from tissue; host or cells: C57BL/6 mouse plasma (EDTA)
T5 sequence (P28843 37-760 limits assumed): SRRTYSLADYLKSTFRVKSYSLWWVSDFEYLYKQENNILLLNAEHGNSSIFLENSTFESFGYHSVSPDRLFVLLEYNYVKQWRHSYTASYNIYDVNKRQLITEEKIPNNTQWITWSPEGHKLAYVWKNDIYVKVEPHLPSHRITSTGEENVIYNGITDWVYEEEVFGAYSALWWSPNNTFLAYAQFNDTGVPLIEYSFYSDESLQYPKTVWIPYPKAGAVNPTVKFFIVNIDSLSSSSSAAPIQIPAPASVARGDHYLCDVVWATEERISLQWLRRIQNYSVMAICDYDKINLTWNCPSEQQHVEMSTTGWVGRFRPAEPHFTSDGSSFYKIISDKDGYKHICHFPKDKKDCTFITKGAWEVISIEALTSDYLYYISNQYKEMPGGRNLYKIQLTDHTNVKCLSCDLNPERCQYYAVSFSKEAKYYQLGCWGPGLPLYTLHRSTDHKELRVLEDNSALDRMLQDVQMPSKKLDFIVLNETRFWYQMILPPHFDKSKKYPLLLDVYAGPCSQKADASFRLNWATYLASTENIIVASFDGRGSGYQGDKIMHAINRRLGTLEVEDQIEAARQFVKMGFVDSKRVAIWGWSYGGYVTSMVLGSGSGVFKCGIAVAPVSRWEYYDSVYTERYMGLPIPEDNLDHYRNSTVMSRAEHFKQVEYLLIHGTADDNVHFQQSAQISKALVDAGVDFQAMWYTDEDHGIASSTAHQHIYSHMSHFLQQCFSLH
Description: Approximately 500 μL of whole blood from one C57BL/6 mouse was harvested into BD Microtainer® tubes (K2) EDTA (#365974, Becton Dickinson and Co.) via terminal cardiac puncture. The blood sample was immediately centrifuged at approximately 9000 g at 4° C. for 5 minutes. Plasma was separated and stored at −80° C. in aliquots of 300 μL. To assay baseline DPPIV enzymatic exopeptidase activity, 5 μL of thawed, mouse plasma was diluted (1:5) in buffer (100 mM Tris-HCl, 400 mM NaCl, 50 mM salicylic acid, 1 mM EDTA, pH 7.5) and mixed with 35 μL of the same buffer before being pre-incubated with different concentrations of 10 μL of test compounds or DMSO vehicle for 15 minutes at 37° C. in 96-well black plates (Nunc, #237108). After pre-incubation, 50 μL of 200 μM dipeptide substrate H-Gly-Pro-AMC (Bachem, # L-1225) was added to the mixture. The assay was performed for 1 hour at 37° C. 7-Amino-4-Methylcoumarin (AMC) release was detected measuring fluorescence at an excitation wavelength of 360 nm and an emission wavelength of 460 nm using a Multifunction Microplate Reader (Synergy 4, Biotek). All measurements were carried out at least in duplicate.

[8] = Table 2, read-out: rhFAPα (% exo inh @ 1 μM)
[9] = Table 3B, read-out: rhFAPα % exo inh @ 1 μM
[10] = exopeptidase, Table 2, read-out: rhFAPα (exo IC50)
[11] = exopeptidase, Table 3A, read-out: rhFAPα (exo IC50)

T1 sequence (Q86TI2 whole entry): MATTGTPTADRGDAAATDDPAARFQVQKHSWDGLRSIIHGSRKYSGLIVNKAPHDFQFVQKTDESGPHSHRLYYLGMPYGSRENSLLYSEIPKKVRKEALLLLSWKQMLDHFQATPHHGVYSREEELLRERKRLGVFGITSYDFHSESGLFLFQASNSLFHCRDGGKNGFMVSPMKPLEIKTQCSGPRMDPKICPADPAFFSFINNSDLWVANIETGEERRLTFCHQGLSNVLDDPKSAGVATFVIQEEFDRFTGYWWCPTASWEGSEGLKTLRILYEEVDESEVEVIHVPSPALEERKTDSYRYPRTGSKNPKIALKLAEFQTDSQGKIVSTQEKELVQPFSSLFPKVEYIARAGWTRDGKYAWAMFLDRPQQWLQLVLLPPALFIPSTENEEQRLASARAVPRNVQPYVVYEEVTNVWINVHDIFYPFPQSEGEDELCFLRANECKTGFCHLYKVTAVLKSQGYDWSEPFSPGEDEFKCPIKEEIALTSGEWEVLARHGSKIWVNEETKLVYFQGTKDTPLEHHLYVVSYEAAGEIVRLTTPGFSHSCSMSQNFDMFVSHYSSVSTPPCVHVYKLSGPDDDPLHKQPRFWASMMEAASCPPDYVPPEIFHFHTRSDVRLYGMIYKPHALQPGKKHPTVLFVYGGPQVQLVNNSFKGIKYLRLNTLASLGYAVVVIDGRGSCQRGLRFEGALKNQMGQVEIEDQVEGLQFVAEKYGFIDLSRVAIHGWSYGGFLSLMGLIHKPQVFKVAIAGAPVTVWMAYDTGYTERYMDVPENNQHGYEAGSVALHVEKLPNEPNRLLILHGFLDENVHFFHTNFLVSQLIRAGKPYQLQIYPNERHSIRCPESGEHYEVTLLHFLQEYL

| SMILES | IC50 [1] | IC50 ([2]; Table 3A) | IC50 ([2]; Table 3B) | IC50 [3] | IC50 ([4]; Table 3B, read-out: rhFAP IC50) | inhibition at 1 µM [4, 8] | inhibition at 1 µM [4, 9] | IC50 [4, 10] | IC50 [4, 11] | IC50 ([5]; Table 3A) | IC50 ([5]; Table 3B) | IC50 [6] | rhFAPα (% exo inh @ 1 μM) ([4]; Table 2) | rhFAPα (% exo inh @ 1 μM) ([4]; Table 3B) | IC50 [7] |
| --- | --- | --- | --- | --- | --- | --- | --- | --- | --- | --- | --- | --- | --- | --- | --- |
| N#C[C@@H]1CC(F)(F)CN1C(=O)CNC(=O)c1ccncc1CCc1ccc(F)cc1 [Compound 11, (S)—N-(2-(2-cyano-4,4-difluoropyrrolidin-1-yl)-2-oxoethyl)-3-(4-fluorophenethyl)isonicotinamide] | 1 to 10 µM | > 10 µM | > 10 µM | 1 to 10 µM | < 1 µM | > 50% | > 50% | < 1 µM | < 1 µM | 1 to 10 µM | 1 to 10 µM | – | – | – | – |
| N#C[C@@H]1CC(F)(F)CN1C(=O)CNC(=O)c1ccncc1/C=C/c1ccc(F)cc1 [Compound 12, (S,E)-N-(2-(2-cyano-4,4-difluoropyrrolidin-1-yl)-2-oxoethyl)-3-(4-fluorostyryl)isonicotinamide] | 1 to 10 µM | 1 to 10 µM | 1 to 10 µM | 1 to 10 µM | < 1 µM | > 50% | > 50% | < 1 µM | < 1 µM | > 10 µM | > 10 µM | – | – | – | – |
| C/C(=C\c1cnccc1C(=O)NCC(=O)N1CC(F)(F)C[C@H]1C#N)c1ccc(F)cc1 [Compound 13, (S,E)-N-(2-(2-cyano-4,4-difluoropyrrolidin-1-yl)-2-oxoethyl)-3-(2-(4-fluorophenyl)prop-1-en-1-yl)isonicotinamide] | 1 to 10 µM | > 10 µM | > 10 µM | 1 to 10 µM | < 1 µM | > 50% | > 50% | < 1 µM | < 1 µM | > 10 µM | > 10 µM | – | – | – | – |
| C=C(Cc1cnccc1C(=O)NCC(=O)N1CC(F)(F)C[C@H]1C#N)c1ccc(F)cc1 [Compound 14, (S)—N-(2-(2-cyano-4,4-difluoropyrrolidin-1-yl)-2-oxoethyl)-3-(2-(4-fluorophenyl)allyl)isonicotinamide] | 1 to 10 µM | > 10 µM | > 10 µM | 1 to 10 µM | < 1 µM | > 50% | > 50% | < 1 µM | < 1 µM | – | 1 to 10 µM | – | – | – | – |
| COc1ccc(/C=C/c2cnccc2C(=O)NCC(=O)N2CC(F)(F)C[C@H]2C#N)cc1 [Compound 15] | – | – | > 10 µM | < 1 µM | < 1 µM | – | > 50% | – | – | – | > 10 µM | > 10 µM | – | – | – |
| N#C[C@@H]1CC(F)(F)CN1C(=O)CNC(=O)c1ccnc2ccc(/C=C/c3ccc(Cl)cc3)cc12 [Compound 34] | – | – | > 10 µM | < 1 µM | < 1 µM | – | > 50% | – | – | – | > 10 µM | < 3 µM | – | – | – |
| N#C[C@@H]1CC(F)(F)CN1C(=O)CNC(=O)c1ccncc1/C=C/c1ccc2cc(Cl)ccc2c1 [Compound 40] | – | – | 1 to 10 µM | < 1 µM | < 1 µM | – | > 50% | – | – | – | > 10 µM | 3 to 10 µM | – | – | – |
| COc1ccc(C#Cc2ccc3nccc(C(=O)NCC(=O)N4CC(F)(F)C[C@H]4C#N)c3c2)cc1 [Compound 41] | – | – | > 10 µM | < 1 µM | < 1 µM | – | > 50% | – | – | – | > 10 µM | > 10 µM | – | – | – |
| N#C[C@@H]1CC(F)(F)CN1C(=O)CNC(=O)c1ccnc2ccc(/C=C/c3ccc(F)cc3)cc12 [Compound 44] | – | – | > 10 µM | < 1 µM | < 1 µM | – | > 50% | – | – | – | > 10 µM | < 3 µM | – | – | – |
| Cc1ccc(/C=C/c2ccc3nccc(C(=O)NCC(=O)N4CC(F)(F)C[C@H]4C#N)c3c2)cn1 [Compound 45] | – | – | > 10 µM | < 1 µM | < 1 µM | – | > 50% | – | – | – | > 10 µM | 3 to 10 µM | – | – | – |
| N#C[C@@H]1CC(F)(F)CN1C(=O)CNC(=O)c1ccnc2ccc(/C=C/c3ccc(C(F)(F)F)nc3)cc12 [Compound 46] | – | – | > 10 µM | < 1 µM | < 1 µM | – | > 50% | – | – | – | > 10 µM | < 3 µM | – | – | – |
| COc1ccc(/C=C/c2ccc3nccc(C(=O)NCC(=O)N4CC(F)(F)C[C@H]4C#N)c3c2)cc1 [Compound 47] | – | – | > 10 µM | < 1 µM | < 1 µM | – | > 50% | – | – | – | > 10 µM | 3 to 10 µM | – | – | – |
| N#C[C@@H]1CC(F)(F)CN1C(=O)CNC(=O)c1ccnc2ccc(/C=C/c3ccc(O)nc3)cc12 [Compound 139] | – | – | > 10 µM | < 1 µM | < 1 µM | – | > 50% | – | – | – | > 10 µM | > 10 µM | – | – | – |
| Cc1cc(/C=C/c2ccc3nccc(C(=O)NCC(=O)N4CC(F)(F)C[C@H]4C#N)c3c2)ccn1 [Compound 192] | – | – | 1 to 10 µM | < 1 µM | < 1 µM | – | > 50% | – | – | – | > 10 µM | < 3 µM | – | – | – |
| COc1cc(/C=C/c2ccc3nccc(C(=O)NCC(=O)N4CC(F)(F)C[C@H]4C#N)c3c2)ccn1 [Compound 193] | – | – | > 10 µM | < 1 µM | < 1 µM | – | > 50% | – | – | – | > 10 µM | < 3 µM | – | – | – |
| N#C[C@@H]1CC(F)(F)CN1C(=O)CNC(=O)c1ccnc2ccc(/C=C/c3ccnc(C(F)(F)F)c3)cc12 [Compound 194] | – | – | 1 to 10 µM | < 1 µM | < 1 µM | – | > 50% | – | – | – | > 10 µM | < 3 µM | – | – | – |
| N#CC1CC(F)(F)CN1C(=O)CNC(=O)c1ccnc2ccccc12 (stereo not shown) [Ref. Comp., reference compound] | – | – | – | – | – | – | – | – | – | – | – | – | +++ (+++ refers to >50% inhibition at 1 μM test compound) | +++ (+++ refers to >50% inhibition at 1 μM test compound) | < 10 µM |
